Where a name gives a salt, the structure may show the parent alone.
Experiment: Dynamic Vapor Sorption (DVS) Isotherm of Aceclidine HCl (hydration of anhydrous to hemihydrate form)
Assay type: physicochemical
Protocol: The conversion from anhydrous to hemihydrate form of Aceclidine HCl (4 mg) was analyzed by a Dynamic Vapor Sorption (DVS) Isotherm.

| Compound | weight when environmental humidity content decreased (DVS, FIG. 4) | reversibility of conversion anhydrous to hemihydrate form (DVS, with decreasing relative humidity, FIG. 4) | hygroscopicity (compared to the corresponding anhydrous form) | conversion into other forms without controlled conditions (handling without humidity-controlled conditions (e.g. glove box)) | weight change at which the hemihydrate form formation is obtained (DVS isotherm, weight change % / relative humidity %, 4 mg sample, FIG. 4) |
| --- | --- | --- | --- | --- | --- |
| CC(=O)OC1CN2CCC1CC2 (centres unmarked) [Aceclidine HCl hemihydrate] | remained stable | irreversible | low hygroscopicity | not subjected to any conversion | – |
| CC(=O)OC1CN2CCC1CC2 (centres unmarked) [Anhydrous Aceclidine HCl, anhydrous Aceclidine HCl, reference compound] | – | – | – | – | about 4% |
